These results are taken from patent publication US12180252B2, “Peptide derived from PEP27 peptide and uses thereof” (priority 2021, dated 2024).

Read-outs that look alike come from different tables or passages of the source. Where a SMILES comes first, the peptide text is derived from it.

One data set concerns E. coli. Nature of the data set: Flow cytometry, propidium iodide staining. It counts as cell-based, Escherichia coli. As for the experimental part: In order to confirm whether the peptide prepared by the method of above 1 acts on the bacterial membrane, PEP27-2 peptide having better antimicrobial activity than the parental peptide was analyzed through flow cytometry.
Thereafter, the supernatant was removed using a centrifuge (10,000 rpm) and stained with propidium iodide (PI) at a concentration of 10 μg/ml at 4° C. for 30 minutes. Then, the unbound propidium iodide (PI) was removed using the centrifuge, and 1 ml of physiological saline (PBS) was added to remove agglomeration of the cells. Thereafter, effects of the peptide on the bacterial membrane were determined using a Bechman flow cytometer.

The nature of data set [1]: Calcein release from LUVs. Particulars: peptide-to-lipid (P/L) ratio 0.2; PE/PG and PC/CH/SM liposomes; 100% = 0.1% Triton X-100. As for the experimental part:
To examine the mechanism of action of PEP27 and PEP27-2, we evaluated the changes in bacterial cell membrane permeability by monitoring the release of calcein, a fluorescent marker, from calcein entrapped LUVs with different lipid bilayer compositions.
Peptide-induced membrane permeabilization was quantified by monitoring calcein release from LUVs (n=3 per condition). Different calcein-entrapped LUVs [PE/PG (7/3) or PC/CH/SM (1/1/1)] were prepared as described above, except that the dry lipid films were resuspended in 1 mL of PBS (pH 7.2) containing 70 mM calcein. Gel filtration chromatography on a Sephadex G-50 column was performed to separate free calcein from that entrapped in LUVs. Thereafter, the LUVs with entrapped calcein were mixed with peptides at various ratios, and the fluorescence of the released calcein was measured with a SpectraMax M3 Multi-Mode Microplate Reader (Molecular Devices, Sunnyvale, CA, USA) at excitation and emission wavelengths of 480 and 520 nm, respectively.

A short description of the next data set: MTT cytotoxicity. It counts as cell-based, human. Particulars: human; 100 μM, 24 h, MTT, HaCaT and MCF-7 cells; read-out: cell viability. As for the experimental part:
Specifically, Thiazolyl blue tetrazolium bromide (MTT, Merck KGaA) was used to determine the cytotoxicity of PEP27 and its analogs against HaCaT (human keratinocyte […], n=4 per condition) and MCF-7 (human breast adenocarcinoma, n=3 per condition) cells. The cells were cultured in Dulbecco's modified Eagle's medium (DMEM) supplemented with 10 heat-inactivated fetal bovine serum (FBS, Gibco, Grand Island, NY, USA) and 1% penicillin-streptomycin (Gibco) at a density of 2×10^4 cells/well (96-well plate). Peptides were then added at various concentrations and incubated for 24 h at 37° C., after which MTT (final concentration, 0.5 mg/mL) was added to each well and incubated for 4 h. The formazan product was solubilized in DMSO, and the absorbance at 570 nm was measured to […] cytotoxicity. Cells treated with 0.1% Triton X-100 were used as the 100% cytotoxic control sample.

The subject of data set [2] is red blood cells of a rat (Balb/c). Particulars: 37° C., 1 hour. The procedure: In order to compare the cytotoxicity of the peptides prepared by the method of above 1, erythrocyte hemolytic activity of each of the synthesized peptides was measured.
Specifically, red blood cells of a rat (Balb/c, 6 weeks old, female) were diluted with PBS (pH 7.0) to a concentration of 8%, and PEP27, PEP27-1, PEP27-2 and PEP27-5 peptides were used for treatment of the cells at concentrations of 3.13, 6.25, 12.5, 25.01 50.0 and 100.0 μM/well, respectively, followed by reaction at 37° C. for 1 hour. Then, an amount of hemoglobin contained in the supernatant obtained by centrifugation at 1,000×g was determined by measuring the absorbance at a wavelength of 414 nm. As a control which is a standard for the degree of cell destruction, the absorbance of the obtained supernatant was measured after treatment using 1% Triton X-100 (Sigma, USA) and reaction at 37° C. for 1 hour. With reference to 100% erythrocytes hemolysis activity, hemolysis of each peptide was calculated from the measured absorbance using Equation 1 below. Erythrocyte destruction ability (%)=(Absorbance A−Absorbance B)/(Absorbance C−Absorbance B)×100 [Equation 1]
(wherein, absorbance A represents the absorbance of a reaction solution treated with each peptide measured at a wavelength of 414 nm; absorbance B represents the absorbance of a reaction solution treated with PBS measured at a wavelength of 414 nm; and absorbance C represents the absorbance of a reaction solution treated with 1% Triton X-100 measured at a wavelength of 414 nm).

For another data set, the system named is plasmid DNA (pRSETB). Nature of the data set: Peptide-DNA binding by agarose gel electrophoresis. Particulars: peptide/DNA ratios 0.25:1 to 4:1, 300 ng plasmid DNA. As for the experimental part: Specifically, 300 ng of plasmid DNA (pRSETB) was reacted with the peptide by a relative ratio (reactions were performed at peptide/DNA ratios of DNA alone, 0.25:1, 0.5:1, 1:1, 1.5:1, 2:1, 3:1, 4:1, respectively) at 37° C. for 10 minutes, followed by conducting electrophoresis on a 1% agarose gel, staining the same with ethidium bromide (EtBr) and monitoring through UV.

Another data set has as its system HaCaT cells. Nature of the data set: Cell absorption of peptide (fluorescence imaging). It counts as cell-based, human. Conditions: 5 μM, 1 hour. As for the experimental part: With regard to the synthetic peptide prepared by the method of above 1, an ability of penetrating cells was determined through a phase-contrast microscope. Specifically, human keratinocyte line (HaCaT cells) was dispensed on a 6-well plate provided with a polylysine coating cover slip (SPL Life Sciences, Gyeonggi-do, Korea) at 2×10^5 cells/well and cultured for 24 hours, and then treated with fluorescein isothiocyanate (FITC)-labeled PEP27-2 (FITC-PEP27-2) at a concentration of 5 μM, followed by incubation in a 5% CO2 incubator for 1 hour. After 1 hour, a nucleus of the cell was treated and stained with Hoechst 33342 nucleic acid dye solution (Invitrogen, Carlsbad, CA, USA; 8 μM) for 10 minutes. After washing the stained product with PBS three times, fluorescence in the cells was imaged using a phase-contrast microscope (EVOS™ FL Auto 2 Imaging System, Thermo Fisher Scientific).

With `CSCC[C@H](N)C(=O)N[C@@H](CCCNC(=N)N)C(=O)N[C@@H](CCCCN)C(=O)N[C@@H](CCC(=O)O)C(=O)N[C@@H](Cc1ccccc1)C(=O)N[C@@H](Cc1c[nH]cn1)C(=O)N[C@@H](CC(N)=O)C(=O)N[C@H](C(=O)N[C@@H](CC(C)C)C(=O)N[C@@H](CO)C(=O)N[C@@H](CO)C(=O)NCC(=O)N[C@@H](CCC(N)=O)C(=O)N[C@@H](CC(C)C)C(=O)N[C@@H](CC(C)C)C(=O)N[C@@H](C)C(=O)N[C@@H](CC(=O)O)C(=O)N[C@@H](CCCCN)C(=O)N[C@@H](CCCNC(=N)N)C(=O)N1CCC[C@H]1C(=O)N[C@@H](C)C(=O)N[C@@H](CCCNC(=N)N)C(=O)N[C@@H](CC(=O)O)C(=O)N[C@@H](Cc1ccc(O)cc1)C(=O)N[C@@H](CC(N)=O)C(=O)N[C@@H](CCCNC(=N)N)C(=O)N[C@@H](CCCCN)C(N)=O)C(C)C` [PEP27] (H-MRKEFHNVLSSGQLLADKRPARDYNRK-NH2; N-terminus assumed), in the data set on E. coli (E. coli, flow cytometry), the “bacterial membrane destruction” value was “without destruction of the E. coli membrane”. In the data set on E. coli (at MIC, 37° C., 1 hour), the “PI-positive E. coli cells (membrane destruction ability)” value is 19.9%. For the same compound, in data set [1], the calcein leakage is reported as 12%. In addition, in “MTT cytotoxicity”, the viability at 24 h, 100 µM amounted to 100%. In addition, the Erythrocyte destruction ability in data set [2] (Peptide concentration 3.13 μM) is given as 0%; in data set [2] (Peptide concentration 6.25 μM), 1.26%; in data set [2] (Peptide concentration 12.5 μM) it was 1.79%; in data set [2] (Peptide concentration 25 μM), 2.76%; in data set [2] (Peptide concentration 50 μM), 3.64%; in data set [2] (Peptide concentration 100 μM, 100% = 1% Triton X-100), 3.58%. Further, the “binding to DNA (gel electrophoresis)” value in the data set with plasmid DNA (pRSETB) is “bound to DNA”.

Regarding GRKKRRQRRRPQ (TAT), in the data set on HaCaT cells, the “cellular absorption into HaCaT cells” value was “absorbed into the cytoplasm and the nucleus of HaCaT cell”.

As a reminder, the viability is the share of living cells, or the viability signal relative to a control.
